# US20220339167A1, “HORMONE D (VITAMIN D) AND ITS DERIVATIVES FOR THE TREATMENT AND PREVENTION OF CANCER” (Industrial Technologies & Biotechnologies, priority 2019, published 2022)
# Assays:
# HL-60 = settings: cited from earlier work
# nonmelanoma skin cancers = assay: oral hormone D3 treatment of nonmelanoma skin cancers; type: in vivo; settings: twelve nonmelanoma skin cancers; oral intake, 466 IU daily, between 6 and 8 months
# cancer = settings: cited from earlier work
# [1] = test system: cancer or major cardiovascular events; settings: 2000 IU daily for 5 years, initially healthy adults; cited from earlier work
# colorectal cancer = settings: 400 IU vitamin D3 with 1000 mg elemental calcium as calcium carbonate; average seven years follow-up; cited from earlier work
# normal colonic mucosa = settings: six months; vitamin D3 800 IU daily with calcium 2000 mg daily; cited from earlier work
SMILES,cell differentiation (HL-60),outcome of treated nonmelanoma skin cancers (nonmelanoma skin cancers),authors' conclusion on cancer prevention (cancer; high dose supplementation prescribed monthly),"participants with primary outcome of cancer (cancer; oral, initial bolus 200,000 IU then 100,000 IU monthly, up to 4 years, without calcium, placebo group 6.4%) [%]",incidence of cancer or major cardiovascular events [1],interaction between risk of colorectal cancer and supplementation (colorectal cancer),apoptosis in normal colonic mucosa (molecular markers) (normal colonic mucosa)
"C=C1/C(=C\C=C2/CCC[C@]3(C)[C@@H]([C@H](C)CCCC(C)(C)O)CC[C@@H]23)C[C@@H](O)C[C@@H]1O [1α,25-dihydroxyvitamin D3]",induces HL-60 differentiation into macrophage-monocyte like cells,,,,,,
"C=C1CC[C@H](O)C/C1=C/C=C1\CCC[C@]2(C)[C@@H]([C@H](C)CCCC(C)C)CC[C@@H]12 [hormone D3, cholecalciferol]",,all of them were resolved completely,may no prevent cancer,6.5,not reduce the incidence of cancer or major cardiovascular events,no significant interaction,may enhance apoptosis in normal colonic mucosa
